Key:
Experiment in all cases: relative viability (nuclei count vs DMSO), 5 days (fraction); higher = more cells survive
[1] = test system: 201T
Summary of the method: (§1)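 After 5 days of treatment, lung cancer cells in 1536-well plates were fixed and stained in a single step (final 0.05% Triton X-100, 1% formaldehyde, 1 ug/ml Hoechst) and their nuclei counted on 4× images. Treatment had been applied by pin tool the day after seeding as one drug alone or as a fixed anchor-drug dose with five library-drug doses (not always all listed) in √10 steps. Relative viability is the nuclei count of treated wells divided by that of vehicle wells, and values are medians of duplicate plates.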

[2] = test system: NCI-H322M
Summary of the method: as §1

[3] = test system: H3255
Summary of the method: as §1

[4] = test system: LK-2
Summary of the method: as §1

[5] = test system: NCI-H596
Summary of the method: as §1

[6] = test system: NCI-H2087
Summary of the method: as §1

[7] = test system: NCI-H2170
Summary of the method: as §1

[8] = test system: NCI-H2126
Summary of the method: as §1

[9] = test system: LXF-289
Summary of the method: as §1

[10] = test system: CAL-12T
Summary of the method: as §1

[11] = test system: NCI-H441
Summary of the method: as §1

[12] = test system: EMC-BAC-2
Summary of the method: as §1

[13] = test system: NCI-H1755
Summary of the method: as §1

[14] = test system: NCI-H522
Summary of the method: as §1

[15] = test system: NCI-H2009
Summary of the method: as §1

[16] = test system: NCI-H647
Summary of the method: as §1

[17] = test system: HOP-62
Summary of the method: as §1

[18] = test system: SW 900
Summary of the method: as §1

[19] = test system: NCI-H1651
Summary of the method: as §1

[20] = test system: NCI-H1734
Summary of the method: as §1

[21] = test system: NCI-H1563
Summary of the method: as §1

[22] = test system: ABC-1
Summary of the method: as §1

COCC1(CO)C(=O)C2CCN1CC2 (stereo unspecified) [PRIMA-1MET] + CCNC(=O)c1noc(-c2cc(C(C)C)c(O)cc2O)c1-c1ccc(CN2CCOCC2)cc1 [Luminespib] (partner 0.01 µM)
relative viability ([1]; first compound 0.2 µM): 1.17 | relative viability ([1]; first compound 0.6325 µM): 0.937 | relative viability ([1]; first compound 2 µM): 0.926 | relative viability ([1]; first compound 6.325 µM): 1.05 | relative viability ([1]; first compound 20 µM): 1.06 | relative viability ([2]; first compound 0.2 µM): 0.974 | relative viability ([2]; first compound 0.6325 µM): 0.809 | relative viability ([2]; first compound 6.325 µM): 0.958 | relative viability ([2]; first compound 20 µM): 0.556 | relative viability ([3]; first compound 0.2 µM): 0.933 | relative viability ([3]; first compound 0.6325 µM): 0.813 | relative viability ([3]; first compound 2 µM): 0.741 | relative viability ([3]; first compound 6.325 µM): 0.868 | relative viability ([3]; first compound 20 µM): 0.91 | relative viability ([4]; first compound 0.2 µM): 0.152 | relative viability ([4]; first compound 0.6325 µM): 0.188 | relative viability ([4]; first compound 2 µM): 0.158 | relative viability ([4]; first compound 6.325 µM): 0.167 | relative viability ([4]; first compound 20 µM): 0.121 | relative viability ([5]; first compound 0.2 µM): 0.921 | relative viability ([5]; first compound 0.6325 µM): 0.809 | relative viability ([5]; first compound 2 µM): 0.858 | relative viability ([5]; first compound 6.325 µM): 0.936 | relative viability ([5]; first compound 20 µM): 0.109 | relative viability ([6]; first compound 0.2 µM): 0.167 | relative viability ([6]; first compound 0.6325 µM): 0.17 | relative viability ([6]; first compound 2 µM): 0.153 | relative viability ([6]; first compound 6.325 µM): 0.181 | relative viability ([6]; first compound 20 µM): 0.0951 | relative viability ([7]; first compound 0.2 µM): 1.06 | relative viability ([7]; first compound 0.6325 µM): 0.545 | relative viability ([7]; first compound 2 µM): 0.557 | relative viability ([7]; first compound 6.325 µM): 0.68 | relative viability ([7]; first compound 20 µM): 0.667 | relative viability ([8]; first compound 0.2 µM): 0.963 | relative viability ([8]; first compound 0.6325 µM): 0.867 | relative viability ([8]; first compound 2 µM): 0.89 | relative viability ([8]; first compound 6.325 µM): 0.929 | relative viability ([8]; first compound 20 µM): 0.885 | relative viability ([9]; first compound 0.2 µM): 0.878 | relative viability ([9]; first compound 0.6325 µM): 0.673 | relative viability ([9]; first compound 2 µM): 0.74 | relative viability ([9]; first compound 6.325 µM): 0.712 | relative viability ([9]; first compound 20 µM): 0.624 | relative viability ([10]; first compound 0.2 µM): 0.363 | relative viability ([10]; first compound 0.6325 µM): 0.383 | relative viability ([10]; first compound 2 µM): 0.547 | relative viability ([10]; first compound 6.325 µM): 0.918 | relative viability ([10]; first compound 20 µM): 0.166 | relative viability ([11]; first compound 0.2 µM): 0.437 | relative viability ([11]; first compound 0.6325 µM): 0.334 | relative viability ([11]; first compound 2 µM): 0.276 | relative viability ([11]; first compound 6.325 µM): 0.365 | relative viability ([11]; first compound 20 µM): 0.277 | relative viability ([12]; first compound 0.2 µM): 1.37 | relative viability ([12]; first compound 0.6325 µM): 1.12 | relative viability ([12]; first compound 6.325 µM): 1.23 | relative viability ([12]; first compound 20 µM): 0.957 | relative viability ([13]; first compound 0.2 µM): 0.527 | relative viability ([13]; first compound 0.6325 µM): 0.332 | relative viability ([13]; first compound 2 µM): 0.404 | relative viability ([13]; first compound 6.325 µM): 0.51 | relative viability ([13]; first compound 20 µM): 0.454 | relative viability ([14]; first compound 0.2 µM): 1.09 | relative viability ([14]; first compound 0.6325 µM): 0.899 | relative viability ([14]; first compound 2 µM): 1.1 | relative viability ([14]; first compound 6.325 µM): 0.989 | relative viability ([14]; first compound 20 µM): 0.838 | relative viability ([15]; first compound 0.2 µM): 0.981 | relative viability ([15]; first compound 0.6325 µM): 0.97 | relative viability ([15]; first compound 2 µM): 1.1 | relative viability ([15]; first compound 6.325 µM): 1.04 | relative viability ([15]; first compound 20 µM): 0.307 | relative viability ([16]; first compound 0.2 µM): 0.181 | relative viability ([16]; first compound 0.6325 µM): 0.224 | relative viability ([16]; first compound 6.325 µM): 0.219 | relative viability ([16]; first compound 20 µM): 0.0932 | relative viability ([17]; first compound 0.2 µM): 0.989 | relative viability ([17]; first compound 0.6325 µM): 0.923 | relative viability ([17]; first compound 2 µM): 0.923 | relative viability ([17]; first compound 6.325 µM): 0.91 | relative viability ([17]; first compound 20 µM): 0.786 | relative viability ([18]; first compound 0.2 µM): 0.171 | relative viability ([18]; first compound 0.6325 µM): 0.176 | relative viability ([18]; first compound 2 µM): 0.162 | relative viability ([18]; first compound 6.325 µM): 0.136 | relative viability ([18]; first compound 20 µM): 0.091 | relative viability ([19]; first compound 0.2 µM): 0.99 | relative viability ([19]; first compound 0.6325 µM): 0.704 | relative viability ([19]; first compound 2 µM): 0.66 | relative viability ([19]; first compound 6.325 µM): 1.06 | relative viability ([19]; first compound 20 µM): 0.824 | relative viability ([20]; first compound 0.2 µM): 0.214 | relative viability ([20]; first compound 0.6325 µM): 0.18 | relative viability ([20]; first compound 2 µM): 0.192 | relative viability ([20]; first compound 6.325 µM): 0.172 | relative viability ([20]; first compound 20 µM): 0.0435 | relative viability ([21]; first compound 0.2 µM): 0.595 | relative viability ([21]; first compound 0.6325 µM): 0.539 | relative viability ([21]; first compound 6.325 µM): 0.529 | relative viability ([21]; first compound 20 µM): 0.147 | relative viability ([22]; first compound 0.2 µM): 0.534 | relative viability ([22]; first compound 0.6325 µM): 0.375 | relative viability ([22]; first compound 2 µM): 0.393 | relative viability ([22]; first compound 6.325 µM): 0.607 | relative viability ([22]; first compound 20 µM): 0.171

Reference: the supplement of paper PMC10307832
